Laboratory results as given in patent US11771086B2, “Pest control composition including novel iminopyridine derivative” (priority 2012, dated 2023).
Several values for one entry are separate records, joined by “and”; a condition that tells them apart may be missing. Identical values can stand only once. Like-named read-outs stand apart in the source and are kept apart here.

Columns and labels:
Spodoptera litura [1] = experiment: Reference Test Example 2 Pest control test of Spodoptera litura (foliar treatment, single agent); assay type: in vivo; conditions: 72 h
Text: After an air drying process, third instar larvae were released thereto. […] Test in duplicate.

Aphis gossypii [2] = experiment: Reference Test Example 3 Pest control test of Aphis gossypii (foliar treatment, single agent); assay type: in vivo; conditions: Aphis gossypii, foliar, 72 h
Protocol: After an air drying process, first instar larvae were released thereto. Thereafter, the larvae were left to stand in a thermostatic chamber (16 hours of light period-8 hours of dark period) at 25° C. […] Test in duplicate. Mortality (%)={number of dead larvae/(number of survived larvae+number of dead larvae)}×100

Laodelphax striatella [3] = experiment: Reference Test Example 4 Pest control test of Laodelphax striatella (foliar treatment, single agent); assay type: in vivo; conditions: Laodelphax striatellus, 72 h
Text: (§1) After an air drying process, second instar larvae were released thereto. […] Test in duplicate.

Nephotettix cincticeps = experiment: Reference Test Example 7 Pest control test of Nephotettix cincticeps (foliar treatment, single agent); assay type: in vivo; conditions: 96 h
Text: as §1

[4] = system: Trigonotylus caelestialium; experiment: Reference Test Example 10 Pest control test of Trigonotylus caelestialium (dipping treatment); assay type: in vivo; conditions: 72 h
Protocol: After an air drying process, the wheat seedling leaves and stems were placed into a glass tube, and two second instar larvae of Trigonotylus coelestialium were released to the same glass tube. After the larvae were released, the tube was lidded to leave the larvae to stand in a thermostatic chamber at 25° C. In order to supply water to the wheat during the test, water was given to the wheat from the bottom of the glass tube. […] Test in triplicate.

Oulema oryzae = experiment: Reference Test Example 12 Pest control test of Oulema oryzae (topical application); assay type: in vivo; conditions: throughput of 0.5 μg/head; adults; forty eight hours after the treatment
Protocol: 1 μL(/head) of a drug solution of the compound of Formula (I) prepared at a predetermined concentration with acetone was topically applied and treated to the back of adults collected outdoors by a micro syringe. After the drug treatment, the adults were transferred to rice seedlings and left to stand in a thermostatic chamber at 25° C. so as to obtain 5 heads per stem. […] Test in duplicate. Mortality of adults (%)={number of dead adults/(number of survived adults+number of dead adults)}×100

[5] = system: Lissorhoptrus oryzophilus; experiment: Reference Test Example 17 Pest control test of Lissorhoptrus oryzophilus (soil drench, single agent); assay type: in vivo; conditions: throughput of 0.1 mg/seedling, adults, three days after the release
Text: Two days after the treatment, five adults of Lissorhoptrus oryzophilus were each released thereto. […] Test in duplicate.

[6] = system: Nilaparvata lugens susceptible species (highly susceptible to imidacloprid); experiment: Reference Test Example 19 Pest control test of Nilaparvata lugens, imidacloprid susceptible species (soil drench); assay type: in vivo; conditions: for Insecticidal effects against Nilaparvata lugens (death rate %), Susceptible population: soil drench, six days
Protocol: (§2) Three days after the treatment, ten second instar larvae of Nilaparvata lugens, which had been collected outdoors and proliferated indoors, were each released to the rice seedling. […] Test in duplicate.
(§3) Furthermore, for comparison, the test against a species of Nilaparvata lugens which is highly susceptible to imidacloprid was performed by the same method as described above, and the results thereof are shown in Table 45. […] Meanwhile, the death rates of imidacloprid at 0.05 mg/seedling were (susceptible species) 100%, (resistant population I) 38% and (resistant population II) 69%, and the insecticidal effect thereof was also low even at a high dose. From the above results, it became obvious that Compound P212 and Compound 1-20 have high insecticidal effects even against Nilaparvata lugens resistance against imidacloprid.
(§4) Further, for the origin of test pests, bugs collected outdoors from the Kumamoto prefecture (I) in 2007 and from the Fukuoka prefecture (II) in 2005 as resistant population of Nilaparvata lugens, and bugs collected from the Kagoshima prefecture and then successively reared indoors for a long time as the imidacloprid susceptible population of Nilaparvata lugens were used.

[7] = system: Nilaparvata lugens resistant population I; experiment: Reference Test Example 19 Pest control test of Nilaparvata lugens, resistant population I (soil drench); assay type: in vivo; conditions: for Insecticidal effects against Nilaparvata lugens (death rate %), Resistant population I: soil drench, six days
Protocol: as §2, §3, §4

[8] = system: Nilaparvata lugens resistant population II; experiment: Reference Test Example 19 Pest control test of Nilaparvata lugens, resistant population II (soil drench); assay type: in vivo; conditions: for Insecticidal effects against Nilaparvata lugens (death rate %), Resistant population II: soil drench, six days
Protocol: as §2, §3, §4

Laodelphax striatella [9] = experiment: whole plant or invertebrate; assay type: in vivo
Protocol: (§5) After an air drying process, second instar larvae were released thereto. […] The test was performed in duplicate.
(§6) Method for Judging Synergistic Effects

Plutella xylostella = experiment: whole plant or invertebrate; assay type: in vivo
Protocol: as §5, §6

Aphis gossypii [10] = experiment: whole plant or invertebrate; assay type: in vivo; conditions: Aphis gossypii
Protocol: The test was performed in duplicate.
as §6

Spodoptera litura [11] = experiment: whole plant or invertebrate; assay type: in vivo; conditions: Spodoptera litura
Protocol: After an air drying process, third instar larvae were released thereto. […] The test was performed in duplicate.
as §6

[12] = system: Frankliniella occidentalis; experiment: whole plant or invertebrate; conditions: Frankliniella occidentalis
Protocol: After an air drying process, first instar larvae were released thereto. Thereafter, the larvae were left to stand in a thermostatic chamber (16 hours of light period-8 hours of dark period) at 25° C. […] The test was performed in duplicate. Mortality of larvae (%)={number of dead larvae/(number of survived larvae+number of dead larvae)}×100
(A: 100−(mortality of larvae or adults when treated only with Compound P212)
B: 100−(mortality of larvae or adults when treated with only the insecticide imidacloprid, dinotefuran, or acetamiprid))
as §6
When the mortality against Frankliniella occidentalis in the case of a mixture with another agent exceeded the theoretical value given by Colby's equation, a synergistic effect was judged to be present.

Chilo suppressalis = assay type: in vivo; conditions: for Theoretical value by Colby's equation: Chilo suppressalis; for Mortality of single agent against Chilo suppressalis: soil irrigation, six days after release
Protocol: After standing for 3 days, second instar larvae were released thereto. […] The test was performed in duplicate.
as §6

Rhizoctonia solani = experiment: Test Example 12 Test of control of rice sheath blight (Rhizoctonia solani); assay type: in vivo; conditions: single agent 50 ppm; foliar spray; six days after inoculation
[13] = foliar, 72 h, read-out: Mortality of single agent against Frankliniella occidentalis

## O=C(N=c1ccccn1Cc1ccc(Cl)nc1)C(F)(F)F [Compound P212, N-[1-((6-chloropyridin-3-yl)methyl)pyridin-2(1H)-ylidene]-2,2,2-trifluoroacetamide]
Spodoptera litura [1]
  mortality at 500 ppm: ≥ 80%
Aphis gossypii [2]
  mortality at 100 ppm: ≥ 80%
Laodelphax striatella [3]
  mortality at 100 ppm: ≥ 80%
Nephotettix cincticeps
  mortality at 100 ppm: ≥ 80%
[4]
  mortality at 50 ppm: ≥ 80%
Oulema oryzae
  mortality: ≥ 80%
[5]
  mortality: ≥ 80%
[6]; susceptible species, 0.005 mg/seedling, six days after the release
  death rates of larvae: 100%
[6]; throughput 0.005 mg/seedling
  Insecticidal effects against Nilaparvata lugens (death rate %), Susceptible population: 100%
[6]; throughput 0.05 mg/seedling
  Insecticidal effects against Nilaparvata lugens (death rate %), Susceptible population: 100%
[7]; resistant population I, 0.005 mg/seedling, six days after the release
  death rates of larvae: 95%
[7]; throughput 0.005 mg/seedling
  Insecticidal effects against Nilaparvata lugens (death rate %), Resistant population I: 95%
[7]; throughput 0.05 mg/seedling
  Insecticidal effects against Nilaparvata lugens (death rate %), Resistant population I: 100%
[8]; resistant population II, 0.005 mg/seedling, six days after the release
  death rates of larvae: 100%
[8]; throughput 0.005 mg/seedling
  Insecticidal effects against Nilaparvata lugens (death rate %), Resistant population II: 100%
[8]; throughput 0.05 mg/seedling
  Insecticidal effects against Nilaparvata lugens (death rate %), Resistant population II: 100%
Laodelphax striatella [9]; Laodelphax striatella foliar, single agent 0.625 ppm (other component 0)
  Theoretical value by Colby's equation: 95%
Laodelphax striatella [9]; Laodelphax striatellus, foliar, 72 h, read-out: Mortality of single agent against Laodelphax striatella
  mortality at 0.625 ppm: 95%
Plutella xylostella; Plutella xylostella, foliar, 72 h, read-out: Mortality of single agent against Plutella xylostella, single agent 1.0 ppm, cabbage leaf disk spray, three days
  mortality at 1 ppm: 40%
Plutella xylostella; Plutella xylostella, foliar, 72 h, read-out: Mortality of single agent against Plutella xylostella, single agent 1.25 ppm, cabbage leaf disk spray, three days
  mortality at 1.25 ppm: 0%
Plutella xylostella; Plutella xylostella, foliar, 72 h, read-out: Mortality of single agent against Plutella xylostella, single agent 2.0 ppm, cabbage leaf disk spray, three days
  mortality at 2 ppm: 60%
Plutella xylostella; Plutella xylostella, single agent 1.0 ppm (other component 0)
  Theoretical value by Colby's equation: 40% and 30%
Plutella xylostella; Plutella xylostella, single agent 1.25 ppm (other component 0)
  Theoretical value by Colby's equation: 0%
Plutella xylostella; Plutella xylostella, single agent 2.0 ppm (other component 0)
  Theoretical value by Colby's equation: 60% and 50%
Plutella xylostella; single agent 1.0 ppm, cabbage leaf disk spray, three days
  Mortality of single agent against Plutella xylostella: 30%
Plutella xylostella; single agent 2.0 ppm, cabbage leaf disk spray, three days
  Mortality of single agent against Plutella xylostella: 50%
Aphis gossypii [10]; foliar, 72 h, read-out: Mortality of single agent against Aphis gossypii
  mortality at 0.313 ppm: 45%
Aphis gossypii [10]; single agent 0.313 ppm (other component 0)
  Theoretical value by Colby's equation: 45%
Spodoptera litura [11]; foliar, 72 h, read-out: Mortality of single agent against Spodoptera litura, single agent 50 ppm, cabbage leaf disk spray, three days
  mortality at 50 ppm: 10%
Spodoptera litura [11]; single agent 50 ppm (other component 0)
  Theoretical value by Colby's equation: 10%
[12]; [13]
  mortality at 10 ppm: 69%
  mortality at 20 ppm: 70%
[12]; single agent 10 ppm (other component 0)
  Theoretical value by Colby's equation: 69%
[12]; single agent 20 ppm (other component 0)
  Theoretical value by Colby's equation: 70%
Chilo suppressalis; single agent 0.002 mg/seedling (other component 0)
  Theoretical value by Colby's equation: 40%
Chilo suppressalis; single agent 0.01 mg/seedling (other component 0)
  Theoretical value by Colby's equation: 33%
Chilo suppressalis; single agent 0.002 mg/seedling
  Mortality of single agent against Chilo suppressalis: 40%
Chilo suppressalis; single agent 0.01 mg/seedling
  Mortality of single agent against Chilo suppressalis: 33%
Rhizoctonia solani
  Preventive value (Sheath blight test, lesion height): 14 and 9
